Data taken from patent publication US20140205566A1, “CYCLIC NUCLEUOSIDE DERIVATIVES AND USES THEREOF” (NOVARTIS AG, priority 2012, published 2014).

How the values were obtained:
[1] = CCK8 cytotoxicity assay in THP-1 cells; assay type: cell-based; settings: human, CCK-8
Procedure: 4 day cytotoxicity assay using THP-1 cells: THP-1 cells grown in suspension were counted and diluted to 8×10^4 cells/ml in RPMI-1640 media supplemented with 10% fetal bovine serum (FBS) and 1% penicillin/streptomycin. 25 ul of the THP-1 containing media consisting of 2000 cells were dispensed in 384-well tissue culture plate and pre-incubated at room temperature for 30 minutes, followed by 37° C., 5% CO2 overnight in the humidified incubator. On the next day, serial-diluted compound plates were prepared and 125 nl of compounds at various concentrations were then dispensed into the tissue culture well (200× dilution). The plates were then transferred to 37° C., 5% CO2 humidified incubator for additional 96 hours. Cytotoxicity was measured by CCK-8 assay. Briefly, CCK-8 was thawed on bench top and diluted 2.5× with the growth media. 35 ul of the pre-diluted CCK-8 was then introduced into each well and the plates were then further incubated in 37° C., 5% CO2 humidified incubator for 3 hours. The absorbance was read by Envision at 450 nm. Dose response curves were calculated as in the previous section (n=2). The CC50 is estimated as the concentration of the compound which will inhibit 50% of the signal. A positive control (puromycin) was used to ensure the quality of the data.

[2] = CCK8 cytotoxicity assay in HepG2 cells; assay type: cell-based; settings: human, CCK-8
Procedure: HepG2 cells were trypsinized, washed, counted and diluted to 1.6×10^4 cells/ml in DMEM-W/O Glucose, supplemented with 10% Fetal bovine serum (FBS), 1% Penicillin/Streptomycin, 2 mM HEPES, 1 mM Sodium Pyruvate, 10 mM Galactose & 2 mM Glutamine. 25 μl of the media containing 400 cells per well were dispensed in clear 384-well tissue culture plate and incubated at room temperature for 30 minutes. The plate was then transferred and placed at 37° C., 5% CO2 humidified incubator overnight. On the next day, serial-diluted compound plates were prepared and 125 nl of compounds at various concentrations were then dispensed into the tissue culture well (200× dilution). The plates were then transferred to 37° C., 5% CO2 humidified incubator for additional 96 hours. Cytotoxicity was measured by CCK-8 assay. Briefly, CCK-8 was thawed on bench top and diluted 2.5× with the growth media. 35 ul of the pre-diluted CCK-8 was then introduced into each well and the plates were then further incubated in 37° C., 5% CO2 humidified incubator for 3 hours. The absorbance was read by Envision at 450 nm. Dose response curves were calculated as in the previous section. The CC50 is estimated as the concentration of the compound which will inhibit 50% of the signal. A positive control (puromycin) was used to ensure the quality of the data.

[3] = Nucleoside triphosphate concentrations in dog PBMC after oral administration; assay type: in vivo; settings: oral administration of 3 mg/Kg
Procedure: Male beagle dogs were administered a single intravenous (0.5 mg/kg) or oral dose (3-15 mg/kg) of a representative compound of the present invention. Blood samples (3.5 mL) were collected at 0, 0.0833 (IV only), 0.25, 0.5, 1, 2, 4, 6, 8, 24, 48, 72 hours post-dose through the jugular vein. K2EDTA was used as the anticoagulant. Plasma was prepared from an aliquot of 0.5 mL of blood and assayed for the compound and metabolites by tandem mass spectrometric method (LC/MS-MS). PBMC was isolated from 3 mL of blood and assayed for nucleoside triphosphate (NTP) levels by LC/MS-MS.
Three mL of blood was collected from the dog into EDTA vacutainers and mixed on a rocker & immediately placed on ice. The blood was transferred to a 15 mL falcon tube. Three mL PBS (w/o Ca/Mg) and 3 mL 6% dextran (in PBS) were added and was left for 30 minutes on ice to allow the red blood cells to sediment. Blood supernatant (5-7 mL) was layered on top of 5 mL of Mammalian-Lympholyte in 15-mL conical blue-top tube, centrifuged for 20 minutes at 1500 g at 4° C.
After centrifugation, the well-defined lymphocyte (PBMC) layer at the interface was carefully removed to a new 15-mL centrifuge tube and was diluted to a total volume of 15 mL to reduce the density of the solution. The content was centrifuged at 800 g for 10 minutes at 4° C. to pellet the PBMC. The pellet was re-suspended in 1 mL of PBS and further diluted to 10 mL, followed by centrifugation at 800 g for 10 minutes at 4° C. to pellet the PBMC. The pellet was re-suspended in 1 mL PBS and followed by 5 mL ice cold de-ionized water, mixed for 30 seconds by inverting to lyse the remaining red blood cells. Five ml of ice cold 2×PBS was added to bring the mixture back to isotonicity. The mixture was centrifuged at 800 g for 10 minutes at 4° C. to pellet the cells and discard the supernatant. The resulting pellet was re-suspended in 1 mL PBS. An aliquot of 10 μL of the pellet suspension was diluted into 90 μL of PBS for cell count. An aliquot of each sample was transferred to a fresh Eppendorf tubes and centrifuged at 5000 rpm for 5 min at 4° C. The pellets were ready for bioanalysis.
Concentrations of nucleoside triphosphate in PBMC were determined by tandem mass spectrometric method (LC/MS/MS). Chromatography was conducted on ACQUITY UPLC HSS T3 Column, 100 Å, 1.8 μm, 2.1 mm×50 mm using a mobile phase gradient consisting of (A) 2 mM ammonium dihydrogen-phosphate and 5 mM Hexylamine in (B) Acetonitrile, 8% B to 22% B in 3.2 minutes at a flow rate of 0.3 mL/minute. The mass spectrometer was operated in the Multiple Reaction Monitoring (MRM) using negative ionization mode. An internal standard, Carbosynth was used in the construction of standard calibration curves in blank PBMC obtained commercially. The nucleoside triphosphate was monitored at m/z 538.1>158.9 and the internal standard was monitored at 536.1>158.9. The dynamic range was 50, 100, 300, 1000, 3000, 10000, 30000 fmole/3×10^6 PBMC.

[4] = Stability in liver microsomes; assay type: in vitro ADME; settings: human, read-out: liver microsomes t1/2

SMILES | CC50 at 96 h [1] [µM] | CC50 at 96 h [2] [µM] | NTP AUC0-24h [3] [fmol/3 million cells] | NTP Cmax [3] [fmol/3 million cells] | half-life [4] [min]
CCOC(=O)[C@H](C)N[P@@]1(=O)OC[C@H]2O[C@@H](n3cnc4c(OCC)nc(N)nc43)[C@](C)(F)[C@@H]2O1 [Example 1, (S)-ethyl 2-(((2R,4aR,6R,7R,7aR)-6-(2-amino-6-ethoxy-9H-purin-9-yl)-7-fluoro-7-methyl-2-oxidotetrahydro-4H-furo[3,2-d][1,3,2]dioxaphosphinin-2-yl)amino)propanoate] | > 50 | > 50 | 36900 ± 11358 | 2331 ± 1181 | 47
CCOc1nc(N)nc2c1ncn2[C@@H]1O[C@@H]2CO[P@@](=O)(N[C@@H](C)C(=O)OC(C)C)O[C@H]2[C@@]1(C)F [Example 2, (S)-isopropyl 2-(((2S,4aR,6R,7R,7aR)-6-(2-amino-6-ethoxy-9H-purin-9-yl)-7-fluoro-7-methyl-2-oxidotetrahydro-4H-furo[3,2-d][1,3,2]dioxaphosphinin-2-yl)amino)propanoate] | 34 | > 50 | 7218 ± 5117 | 618 ± 308 | 32
CCOc1nc(N)nc2c1ncn2[C@@H]1O[C@@H]2CO[P@](=O)(N[C@@H](C)C(=O)OC)O[C@H]2[C@@]1(C)F [Example 3, (S)-methyl 2-(((2R,4aR,6R,7R,7aR)-6-(2-amino-6-ethoxy-9H-purin-9-yl)-7-fluoro-7-methyl-2-oxidotetrahydro-4H-furo[3,2-d][1,3,2]dioxaphosphinin-2-yl)amino)propanoate] | > 50 | > 50 | 10457 ± 2983 | 662 ± 228 | 57
CCOc1nc(N)nc2c1ncn2[C@@H]1O[C@@H]2CO[P@@](=O)(N[C@H](C)C(=O)OC(C)C)O[C@H]2[C@@]1(C)F [Example 6, (R)-isopropyl 2-(((2S,4aR,6R,7R,7aR)-6-(2-amino-6-ethoxy-9H-purin-9-yl)-7-fluoro-7-methyl-2-oxidotetrahydro-4H-furo[3,2-d][1,3,2]dioxaphosphinin-2-yl)amino)propanoate] | > 50 | > 50 | 11049 ± 2190 | 777 ± 45.2 | –
